Test results from ChEMBL document CHEMBL3244037, “6-Aryl-4H-s-triazolo[4,3-a][1,4]benzodiazepines. Influence of 1-substitution on pharmacological activity” (J Med Chem, 1979).

Experiments:
[1] = test system: Mus musculus; assay: Anticonvulsant activity in ip dosed albino CF1 mouse assessed as protection against pentylenetetrazole-induced clonic convulsions; assay type: functional
[2] = test system: Mus musculus; assay: Hypothermic activity in ip dosed albino CF1 mouse assessed as effect on body temperature measured after 45 mins; assay type: functional; conditions: 0.75 h
[3] = test system: Mus musculus; assay: Inhibition of apomorphine-induced cage climbing in ip dosed albino CF1 mouse compound administered prior to challenge measured for 5 mins after 5 mins of challenge; assay type: functional
[4] = test system: Mus musculus; assay: Anticonvulsant activity in ip dosed albino CF1 mouse assessed as inhibition of bicucullin-induced tonic extensor convulsions; assay type: functional
[5] = test system: Mus musculus; assay: […] activity in ip dosed albino CF1 mouse assessed as potentiation of gamma-butyrolactone-induced sleep; assay type: functional
[6] = test system: Mus musculus; assay: Reduction of hypoxic stress in ip dosed albino CF1 mouse assessed as prolongation of hypoxic survival time; assay type: functional
[7] = test system: Mus musculus; assay: Inhibition of amphetamine aggregation toxicity in ip dosed albino CF1 mouse compound administered 1 hr prior to challenge measured after 2 hrs; assay type: functional
[8] = test system: Mus musculus; assay: Potentiation of yohimbine toxicity in ip dosed aggregated albino CF1 mouse; assay type: organism-based
[9] = test system: Mus musculus; assay: Inhibition of oxotremorine-induced hypothermia in ip dosed albino CF1 mouse; assay type: functional
[10] = test system: Mus musculus; assay: Potentiation of apomorphine-induced gnawing in ip dosed albino CF1 mouse; assay type: organism-based

SMILES	ED50 [1] [mg/kg]	ED50 [2] [mg/kg]	ED50 [3] [mg/kg]	ED50 [4] [mg/kg]	ED50 [5] [mg/kg]	ED50 [6] [mg/kg]	ED50 [7] [mg/kg]	ED50 [8] [mg/kg]	ED50 [9] [mg/kg]	ED50 [10] [mg/kg]
Clc1ccc2c(c1)C(c1ccccc1)=NCc1nnc(Br)n1-2	2.3	> 50	> 50	3	2	6	> 50	> 50	> 50	> 50
Clc1ccc2c(c1)C(c1ccccc1)=NCc1nnc(N3CCOCC3)n1-2	2.6	7	40	3.1	4.4	> 50	> 50	> 50	35.4	35.4
CN(C)c1nnc2n1-c1ccc(Cl)cc1C(c1ccccc1)=NC2	0.9	> 50	> 50	1.1	0.3	9	> 50	> 50	21	> 50
N#Cc1nnc2n1-c1ccc(Cl)cc1C(c1ccccc1)=NC2	–	10	> 50	3	4	> 50	> 50	> 50	> 50	> 50
COc1nnc2n1-c1ccc(Cl)cc1C(c1ccccc1)=NC2	0.14	10	> 50	0.5	0.1	> 50	> 50	> 50	> 50	> 50
Sc1nnc2n1-c1ccc(Cl)cc1C(c1ccccc1)=NC2	2.3	9	> 50	3	0.8	9	> 50	> 50	> 50	> 50
COCc1nnc2n1-c1ccc(Cl)cc1C(c1ccccc1)=NC2	2	30	> 50	0.6	2	20	> 50	> 50	> 50	> 50
OCc1nnc2n1-c1ccc(Cl)cc1C(c1ccccc1)=NC2	0.1	> 50	> 50	0.2	0.1	0.9	> 50	> 50	20	> 50
